These results are taken from US7432245B2, “Pharmaceutical formulation comprising a peptide angiogenesis inhibitor” (Abbott Laboratories Inc., priority 2002, dated 2008).

Each structure is given as a SMILES string. Where a name gives a salt, the structure may show the parent alone. Where a SMILES comes first, the peptide text is derived from it. [ ]: non-standard residue; d: D form. Nva = CCC[C@H](N)C(=O)O; Sar = CNCC(=O)O

The nature of the data set: In vitro release from PLG gels into buffer at 37° C. The class given is physicochemical. The conditions noted are these: solution of 5% in 2:1 NMP/TA without PLG, 5 mM PBS buffer (pH 7.4), FIG. 1. How it is done: The samples of gel formulations of the acetate salt of formula (Ia) in PLG and NMP/TA were immersed in 5 mM PBS buffer (pH 7.4) and incubated at 37° C. At a predetermined time, 1 mL of the dissolution medium was withdrawn from the dissolution container, filtered, and assayed for the concentration of the acetate salt of formula (Ia) by HPLC. Fresh PBS buffer (1 mL) was added to replace the withdrawn medium.
The in vitro drug release of the acetate salt of formula (Ib) from the PLG gel formulations (IV) and (V) (from Example 6) was determined by the method described in Example 4.
The in vitro drug release profiles of PLG (24 KD) gel formulations were obtained by the methods described in Example 4.
Formulations of valproate (formulation VI), octanoate (formulation VII), and pivalate (formulation VIII) salts of the compound of formula (Ib) were prepared by substituting the appropriate salts (prepared as described in Example 1b) for the acetate salt in Example 6B. […] In addition, a formulation (formulation IX) that contained 6.0% pivalate salt of formula (Ib), 32.9% PLG (13 KD, 50:50 polymer ratio), 40.4% NMP and 20.7% TA was also prepared. The in vitro drug release profiles of formulations VI, VII, VIII, and IX were obtained by the methods described in Example 4 substituting 50 mM phosphate buffer (pH 7.4) for 5 mM PBS buffer. […]

`CCC[C@H](NC(=O)[C@@H](NC(=O)[C@H](NC(=O)[C@@H](NC(=O)CNC(=O)CN(C)C(C)=O)C(C)C)[C@H](C)CC)[C@@H](C)O)C(=O)N[C@H](C(=O)N[C@@H](CCCNC(=N)N)C(=O)N1CCC[C@H]1C(=O)NCC)[C@@H](C)CC` [acetate salt of formula (Ia), N-Ac-Sar-Gly-Val-DIle-Thr-Nva-Ile-Arg-ProNHCH2CH3] (Ac-[Sar]GV[dI]T[Nva]IRP-NHEt): the “in vitro release profile” value is reported as “no sustained release”.
